The results in this text go back to ChEMBL document CHEMBL1800071, “Switching reversibility to irreversibility in glycogen synthase kinase 3 inhibitors: clues for specific design of new compounds” (J Med Chem, 2011).

Active and inactive are the calls of the source. The rule behind the calls is not given here.

Assay [1] has as its target T1, Glycogen synthase kinase-3 beta (Homo sapiens, UniProt P49841). In words: Inhibition of GSK3-beta using GS1 as substrate and [gamma-32P]ATP after 20 mins by radiometric assay.
Target sequence in this assay (P49841 whole entry): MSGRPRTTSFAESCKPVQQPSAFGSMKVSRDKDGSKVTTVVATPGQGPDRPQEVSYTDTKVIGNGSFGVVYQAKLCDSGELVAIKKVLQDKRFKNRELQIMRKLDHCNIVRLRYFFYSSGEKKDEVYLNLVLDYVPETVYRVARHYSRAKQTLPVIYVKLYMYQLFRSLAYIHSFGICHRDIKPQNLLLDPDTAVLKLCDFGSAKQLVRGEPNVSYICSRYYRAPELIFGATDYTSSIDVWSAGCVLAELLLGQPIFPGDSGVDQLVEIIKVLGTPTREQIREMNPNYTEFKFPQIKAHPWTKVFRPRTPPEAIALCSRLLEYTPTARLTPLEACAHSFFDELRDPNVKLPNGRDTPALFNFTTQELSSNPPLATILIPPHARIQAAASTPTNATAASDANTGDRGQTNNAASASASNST
In assay [2] the target is T1, Glycogen synthase kinase-3 beta. In words: Inhibition of human recombinant GSK3-beta using prephosphorylated polypeptide substrate after 30 mins by Glow-type luminescence assay in presence of 1 uM ATP.
Target sequence in this assay (P49841 whole entry): as above
For assay [3] the target is unchanged. Description: Irreversible inhibition of human recombinant GSK3-beta using prephosphorylated polypeptide substrate preincubated with enzyme for 5 to 10 mins measured after 30 mins by Glow-type luminescence assay in presence of 1 uM ATP.
Target sequence in this assay (P49841 whole entry, looked up): as the sequence (P49841 whole entry) above
Assay [4] has as its target Tyrosine-protein kinase ABL1 (Mus musculus) (UniProt P00520). In words: Inhibition of mouse recombinant Abl expressed in Escherichia coli assessed as phosphopoly Gt formation using poly Gt as substrate at 10 uM by fluorescence polarization method. Background: Fluorescence polarisation rises when a labelled molecule tumbles more slowly, as on binding a larger partner.
In assay [5] the target is Epidermal growth factor receptor (Homo sapiens) (UniProt P00533). In words: Inhibition of EGFR kinase in human A431 cells using poly GAT as substrate and [gamma-33P]ATP at 10 uM by scintillation counting. It is filed as cell-based. The settings on record: A-431.
The target of assay [6] is Insulin receptor (Homo sapiens) (UniProt P06213). Description: Inhibition of human recombinant IRK using poly GT as substrate and [gamma-33P]ATP at 10 uM by scintillation counting.
Assay [7] has as its target Mitogen-activated protein kinase 1 (Rattus norvegicus) (UniProt P63086). Description: Inhibition of rat recombinant ERK42 expressed in Escherichia coli using MBP as substrate and [gamma-33P]ATP at 10 uM by scintillation counting.
Assay [8] addresses Dual specificity mitogen-activated protein kinase kinase 1 (Oryctolagus cuniculus) (UniProt P29678). In words: Inhibition of rabbit recombinant MEK1 expressed in Escherichia coli using inactivated MAP kinase as substrate and [gamma-33P]ATP at 10 uM by scintillation counting.
The species named for assay [9] is Bos taurus. Description: Inhibition of bovine thymus protein kinase p56 using poly GT as substrate and [gamma-33P]ATP at 10 uM by scintillation counting.
The target of assay [10] is Adrenergic receptor alpha-2 (Rattus norvegicus) (UniProt P22086+P19328+P22909). In words: Displacement of [3H]-RX821002 from adrenergic A2 receptor in rat cerebral cortex at 10 uM. It is filed as tissue-based.
In assay [11] the target is D(2) dopamine receptor (Homo sapiens) (UniProt P14416). Description: Displacement of [3H]spiperone form human recombinant D2 receptor expressed in CHO cells at 10 uM. It counts as cell-based.
The target of assay [12] is D(3) dopamine receptor (Homo sapiens) (UniProt P35462). Description: Displacement of [3H]spiperone form human recombinant D3 receptor expressed in CHO cells at 10 uM. It is filed as cell-based. For orientation: Displacement assays read how much labelled ligand stays bound in the presence of the test substance.
For assay [13], the species on record is Rattus norvegicus. In words: Displacement of [3H]-AMPA from AMPA glutaminergic receptor in rat cerebral cortex at 10 uM. It counts as tissue-based.
The species entered for assay [14] is Rattus norvegicus. In words: Displacement of [3H]-CGP39653 from NMDA glutaminergic receptor in rat cerebral cortex at 10 uM. It is filed as tissue-based.
For assay [15], the target named is Muscarinic acetylcholine receptor (Rattus norvegicus) (UniProt P08482+P08483+P08485+P08911+P10980). Description: Displacement of [3H]-QNB from muscarinic receptor in rat cerebral cortex at 10 uM. It counts as tissue-based.
Assay [16] is filed under the species Rattus norvegicus. Description: Displacement of [3H]cytisine from alpha-BGTX-insensitive neuronal nicotinic receptor in rat cerebral cortex at 10 uM. It counts as tissue-based.
The species named for assay [17] is Rattus norvegicus. Description: Displacement of [125I]-alpha-bungarotoxin from alpha-BGTX-sensitive neuronal nicotinic receptor in rat cerebral cortex at 10 uM. It is filed as tissue-based.
The species entered for assay [18] is Rattus norvegicus. In words: Displacement of [3H]serotonine from 5-HT receptor in rat cerebral cortex at 10 uM. It is filed as tissue-based.
In assay [19] the target is Proto-oncogene tyrosine-protein kinase Src (Homo sapiens) (UniProt P12931). Description: Inhibition of Src kinase at 10 uM.
Assay [20] is described as follows: Inhibition of protein kinase A at 100 uM.
The subject of assay [21] is Calcium/calmodulin-dependent protein kinase type II (Rattus norvegicus). Description: Inhibition of rat brain CAM kinase 2 using autocamtide as substrate and [gamma-33P] at 10 uM by scintillation counting.
Assay [22] concerns the target T1, Glycogen synthase kinase-3 beta. Description: Covalent binding affinity to human recombinant GSK3-beta by MALDI-TOF analysis.
Target sequence in this assay (P49841 whole entry, looked up): as the sequence (P49841 whole entry) above
The target is the same in assay [23]. In words: Reversible inhibition of human recombinant GSK3-beta using prephosphorylated polypeptide substrate preincubated with enzyme for 5 to 10 mins measured after 30 mins by Glow-type luminescence assay in presence of 1 uM ATP.
Target sequence in this assay (P49841 whole entry, looked up): as the sequence (P49841 whole entry) above
Assay [24] in a line: Inhibition of GSK3 in granule cerebellar neurons assessed as […] of tau phosphorylation at 25 uM after 16 hrs by Western blot analysis. In general terms: Immunoblotting shows a protein as a band on a membrane.
Assay [25] is described as follows: Inhibition of GSK3 in granule cerebellar neurons assessed as decrease of tau phosphorylation at Ser396 at 25 uM after 16 hrs by Western blot analysis.

Chain of D(2) dopamine receptor (Homo sapiens) (P14416 whole entry): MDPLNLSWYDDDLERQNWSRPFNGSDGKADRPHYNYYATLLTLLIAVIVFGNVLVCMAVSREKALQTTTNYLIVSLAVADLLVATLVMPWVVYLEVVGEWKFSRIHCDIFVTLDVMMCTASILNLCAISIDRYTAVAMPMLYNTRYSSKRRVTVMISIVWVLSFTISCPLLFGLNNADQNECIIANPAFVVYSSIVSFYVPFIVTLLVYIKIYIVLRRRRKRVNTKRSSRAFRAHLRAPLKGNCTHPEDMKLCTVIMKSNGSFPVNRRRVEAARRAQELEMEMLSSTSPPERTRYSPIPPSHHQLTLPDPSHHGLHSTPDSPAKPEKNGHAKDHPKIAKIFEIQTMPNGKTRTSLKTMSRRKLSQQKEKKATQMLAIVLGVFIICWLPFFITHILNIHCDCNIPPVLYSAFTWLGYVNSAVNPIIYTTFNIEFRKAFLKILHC
Chain of D(3) dopamine receptor (Homo sapiens) (P35462 whole entry): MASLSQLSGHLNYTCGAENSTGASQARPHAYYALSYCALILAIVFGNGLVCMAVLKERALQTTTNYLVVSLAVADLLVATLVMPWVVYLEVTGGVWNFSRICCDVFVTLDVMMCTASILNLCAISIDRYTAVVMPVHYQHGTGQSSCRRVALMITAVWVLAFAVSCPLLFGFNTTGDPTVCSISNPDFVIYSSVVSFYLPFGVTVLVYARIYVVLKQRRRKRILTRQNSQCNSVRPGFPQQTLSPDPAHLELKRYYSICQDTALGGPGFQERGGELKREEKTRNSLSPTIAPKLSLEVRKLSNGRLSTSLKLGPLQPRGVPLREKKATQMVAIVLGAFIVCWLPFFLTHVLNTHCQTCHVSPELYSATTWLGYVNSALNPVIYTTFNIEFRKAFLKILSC
Chain of Dual specificity mitogen-activated protein kinase kinase 1 (Oryctolagus cuniculus) (P29678 whole entry): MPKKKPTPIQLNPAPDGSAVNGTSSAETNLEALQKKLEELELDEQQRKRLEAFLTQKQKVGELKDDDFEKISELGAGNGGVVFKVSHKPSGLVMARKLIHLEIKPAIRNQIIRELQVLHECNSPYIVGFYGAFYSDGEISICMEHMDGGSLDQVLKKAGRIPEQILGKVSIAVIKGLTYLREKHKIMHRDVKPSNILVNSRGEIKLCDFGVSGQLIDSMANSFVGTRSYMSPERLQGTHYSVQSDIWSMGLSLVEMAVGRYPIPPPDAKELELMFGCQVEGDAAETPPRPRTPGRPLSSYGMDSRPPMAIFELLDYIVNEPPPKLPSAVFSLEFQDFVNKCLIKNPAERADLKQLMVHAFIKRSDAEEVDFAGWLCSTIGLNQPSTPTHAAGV
Chain of Proto-oncogene tyrosine-protein kinase Src (Homo sapiens) (P12931 2-536 limits assumed): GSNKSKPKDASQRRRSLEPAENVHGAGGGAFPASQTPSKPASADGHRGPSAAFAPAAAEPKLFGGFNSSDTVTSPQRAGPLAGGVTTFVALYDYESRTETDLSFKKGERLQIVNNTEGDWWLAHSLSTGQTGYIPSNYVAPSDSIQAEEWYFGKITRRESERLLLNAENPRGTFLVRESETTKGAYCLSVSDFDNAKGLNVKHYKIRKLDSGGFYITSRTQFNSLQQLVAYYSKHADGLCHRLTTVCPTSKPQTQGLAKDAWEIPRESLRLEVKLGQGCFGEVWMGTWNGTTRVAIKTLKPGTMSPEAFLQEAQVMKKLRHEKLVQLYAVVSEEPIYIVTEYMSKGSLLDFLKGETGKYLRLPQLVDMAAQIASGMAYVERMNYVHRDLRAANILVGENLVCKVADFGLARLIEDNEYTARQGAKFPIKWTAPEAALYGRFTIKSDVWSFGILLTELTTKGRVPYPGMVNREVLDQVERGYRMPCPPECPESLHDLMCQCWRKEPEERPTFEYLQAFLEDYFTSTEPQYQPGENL
Chain of Insulin receptor (Homo sapiens) (P06213 28-758 limits assumed): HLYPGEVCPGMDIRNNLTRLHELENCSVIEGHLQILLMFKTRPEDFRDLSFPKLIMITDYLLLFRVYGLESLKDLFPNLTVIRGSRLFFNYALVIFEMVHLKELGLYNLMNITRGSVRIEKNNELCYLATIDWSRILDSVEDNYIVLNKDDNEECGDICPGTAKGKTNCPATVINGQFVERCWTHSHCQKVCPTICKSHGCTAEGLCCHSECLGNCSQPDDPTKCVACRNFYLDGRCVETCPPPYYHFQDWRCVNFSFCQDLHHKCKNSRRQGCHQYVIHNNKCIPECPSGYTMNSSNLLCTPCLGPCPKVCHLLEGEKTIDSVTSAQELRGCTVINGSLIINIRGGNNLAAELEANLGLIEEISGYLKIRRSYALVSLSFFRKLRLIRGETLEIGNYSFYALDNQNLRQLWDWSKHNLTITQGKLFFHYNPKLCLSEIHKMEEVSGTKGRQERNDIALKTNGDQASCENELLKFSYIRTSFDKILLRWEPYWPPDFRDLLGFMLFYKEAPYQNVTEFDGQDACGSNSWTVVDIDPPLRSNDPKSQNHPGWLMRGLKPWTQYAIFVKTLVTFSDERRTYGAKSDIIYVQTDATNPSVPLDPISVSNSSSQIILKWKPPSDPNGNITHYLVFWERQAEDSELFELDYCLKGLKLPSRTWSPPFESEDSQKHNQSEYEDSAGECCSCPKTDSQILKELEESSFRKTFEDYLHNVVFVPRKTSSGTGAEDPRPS
Chain of Insulin receptor (Homo sapiens) (P06213 763-1382 limits assumed): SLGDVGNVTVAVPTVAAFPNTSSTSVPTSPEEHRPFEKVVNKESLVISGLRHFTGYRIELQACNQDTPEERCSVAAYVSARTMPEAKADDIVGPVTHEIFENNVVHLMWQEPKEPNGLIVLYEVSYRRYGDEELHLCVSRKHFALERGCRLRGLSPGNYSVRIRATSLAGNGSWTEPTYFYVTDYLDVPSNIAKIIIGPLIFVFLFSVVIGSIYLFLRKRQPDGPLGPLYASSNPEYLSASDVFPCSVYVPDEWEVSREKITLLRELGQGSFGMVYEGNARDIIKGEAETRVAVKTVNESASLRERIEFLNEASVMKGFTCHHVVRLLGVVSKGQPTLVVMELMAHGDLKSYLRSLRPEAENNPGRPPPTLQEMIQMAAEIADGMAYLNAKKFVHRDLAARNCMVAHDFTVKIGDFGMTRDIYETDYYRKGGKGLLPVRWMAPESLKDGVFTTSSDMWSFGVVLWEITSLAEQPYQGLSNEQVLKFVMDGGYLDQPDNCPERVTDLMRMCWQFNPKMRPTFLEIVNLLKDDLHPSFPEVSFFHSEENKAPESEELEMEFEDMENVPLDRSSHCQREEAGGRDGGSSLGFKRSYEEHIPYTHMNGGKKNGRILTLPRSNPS
Chain of Tyrosine-protein kinase ABL1 (Mus musculus) (P00520 whole entry): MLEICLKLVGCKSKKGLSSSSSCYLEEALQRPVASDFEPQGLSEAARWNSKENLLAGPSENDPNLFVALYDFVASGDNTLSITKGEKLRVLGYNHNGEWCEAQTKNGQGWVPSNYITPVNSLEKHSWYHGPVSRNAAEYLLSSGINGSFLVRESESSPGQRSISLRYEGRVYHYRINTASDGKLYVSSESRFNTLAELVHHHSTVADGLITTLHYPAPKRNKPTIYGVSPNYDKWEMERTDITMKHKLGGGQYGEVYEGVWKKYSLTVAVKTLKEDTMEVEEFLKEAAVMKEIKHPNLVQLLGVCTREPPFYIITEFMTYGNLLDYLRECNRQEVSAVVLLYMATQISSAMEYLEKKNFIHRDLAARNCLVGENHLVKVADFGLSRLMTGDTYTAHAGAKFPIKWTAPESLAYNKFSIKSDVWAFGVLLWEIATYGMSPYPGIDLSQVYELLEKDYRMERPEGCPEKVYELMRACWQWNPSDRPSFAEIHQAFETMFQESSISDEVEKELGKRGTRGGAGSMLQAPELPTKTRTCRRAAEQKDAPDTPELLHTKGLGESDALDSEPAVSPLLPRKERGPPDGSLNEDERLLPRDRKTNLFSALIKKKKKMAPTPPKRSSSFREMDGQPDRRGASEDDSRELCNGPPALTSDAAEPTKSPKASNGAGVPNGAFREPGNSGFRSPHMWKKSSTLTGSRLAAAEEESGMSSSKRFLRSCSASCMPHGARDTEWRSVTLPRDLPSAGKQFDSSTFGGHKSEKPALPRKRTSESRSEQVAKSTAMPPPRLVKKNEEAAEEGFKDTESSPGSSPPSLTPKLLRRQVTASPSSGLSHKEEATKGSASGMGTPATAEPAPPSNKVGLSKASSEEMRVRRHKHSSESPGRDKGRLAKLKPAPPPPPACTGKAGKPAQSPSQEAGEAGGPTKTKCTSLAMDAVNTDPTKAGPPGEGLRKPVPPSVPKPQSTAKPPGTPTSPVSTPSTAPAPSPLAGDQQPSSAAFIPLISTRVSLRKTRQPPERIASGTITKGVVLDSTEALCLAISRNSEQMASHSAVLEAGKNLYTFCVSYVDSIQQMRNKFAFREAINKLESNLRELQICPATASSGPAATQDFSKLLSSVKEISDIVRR

Take `[O-][S+](CCl)c1ccc(Br)cc1` (stereo unspecified): the half-maximal inhibitory concentration (IC50) (commonly the midpoint of a concentration-inhibition curve) in assay [1] is more than 100 µM.

Turning to `COc1ccc(-n2cnc3cc(C(=O)CBr)ccc32)cc1`, the IC50 in [2] worked out at 0.58 µM. Moreover, in assay [3], the inhibition – broadly, the drop in the measured response relative to a control, in per cent – is “Active”.

For the compound `O=C(CBr)c1ccc(N2CCOCC2)cc1`, the IC50 in [1] is 6 µM.

Turning to `O=C(CCl)c1ccc(Cl)cc1`, the inhibition in assay [4], in assay [5], in assay [6], in assay [7], in assay [8] and in assay [9] was less than 10% throughout. The inhibition in assay [10] was less than 10%; in assay [11] it was less than 10%; in assay [12], less than 10%; in [13], less than 10%; in assay [14], 15%; in [15], less than 10%. Besides, the inhibition in [16] was less than 10%; in assay [17], less than 10%; in [18], less than 10%; in assay [19], 19%; in assay [21], 16%. Besides, the inhibition entry in [20] was “inactive”.

Turning to `Nc1ncnc2c1ncn2C(=O)CCl`, the IC50 in assay [2] was 13.4 µM.

As for `Nc1c(Br)cc(C(=O)C(Br)Br)cc1Br`, the half-inhibitory concentration (IC50) in assay [1] came out at 0.5 µM.

`COc1ccc(-n2cnc3cc(C(C)=O)ccc32)cc1`: the half-maximal inhibitory concentration (IC50) in assay [2] was more than 10 µM.

As for `O=C(CN1C(=O)c2ccccc2C1=O)c1ccc(Br)cc1`, in assay [1], 100 µM corresponded to half-maximal inhibition (IC50).

Take `CCSCC(=O)c1ccc(Br)cc1`: the concentration for half-maximal inhibition (IC50) in assay [1] was more than 10 µM.

Take `CC(=O)C1=C(c2cn(C)c3ccccc23)C(=O)NC1=O`: the 50% inhibitory concentration (IC50) in assay [2] worked out at 0.89 µM. In addition, the result in assay [22] was Active. In assay [23], the inhibition result is “Active”.

Compound `O/N=C(\CBr)c1ccc(Br)cc1` displayed an IC50 in assay [1] of more than 100 µM.

Consider `CC(=O)n1cnc2c(N)ncnc21`, for which, in [2], the half-maximal inhibitory concentration (IC50) is more than 50 µM.

`Cn1cc(C2=C(C(=O)CBr)C(=O)NC2=O)c2ccccc21`: the IC50 in [2] is 0.005 µM. Moreover, in [22], the outcome was Active. Moreover, the inhibition entry in assay [3] was “Active”.

Turning to `O=C(CBr)c1ccc(C(F)(F)F)cc1`, inhibition in [1] was half-maximal at 5 µM (IC50).

In the case of `O=C(c1ccc(I)cc1)C(Br)Br`, the IC50 in assay [1] turned out to be 2 µM.

`N#Cc1ccc(C(=O)C(Br)Br)cc1`: in assay [1], the IC50 turned out to be 1.5 µM.

As for `CC(=O)OCC(=O)c1ccc(Br)cc1`, the IC50 in assay [1] was more than 100 µM.

Compound `O=C(CSCc1ccccc1)c1ccc(Br)cc1` displayed a half-inhibitory concentration (IC50) in assay [1] of more than 10 µM.

Turning to `CO/N=C(\CBr)c1ccc(Br)cc1`, half-maximal inhibition in assay [1] (IC50) required 50 µM.

`NCC(=O)c1ccc(Br)cc1` gave an IC50 in assay [1] of 100 µM.

Take `O=C(CBr)C1=C(c2c[nH]c3ccccc23)C(=O)NC1=O`: the IC50 in assay [2] was 0.047 µM. Besides, the inhibition result in assay [3] was “Active”.

Take `[Cl-].[Li+]`: the inhibition result in [24] and in [25] was “Active” each time.

For `O=C(c1ccccn1)C(Br)Br`, in [1], it took 2.5 µM to reach half-maximal inhibition (IC50).

`O=C(c1ccc(C(F)(F)F)cc1)C(Br)Br` registered a half-inhibitory concentration (IC50) in [1] of 5 µM.

In the case of `O=C(CBr)c1ccc(Br)cc1`, the inhibition in assay [4] is less than 10%; in assay [5], 18%; in assay [6], less than 10%; in assay [7], less than 10%; in [8], less than 10%; in [9], 29%. For the same compound, the inhibition in [10], in [11], in assay [12], in assay [13], in [14] and in assay [15] was less than 10% throughout. In addition, the inhibition in assay [16] is 16%; in assay [17] it was less than 10%; in [18] it was less than 10%; in [19], 38%; in assay [21], less than 10%. In addition, the inhibition entry in [20] was “inactive”.

`O=C(CSc1ccccc1)c1ccc(Br)cc1`: the IC50 in [1] was more than 100 µM.

In [1], `O=C(CO)c1ccc(Br)cc1` showed an IC50 of more than 100 µM.

In [1], `N#Cc1cccc(C(=O)C(Br)Br)c1` had an IC50 of 1 µM.

On to `CC(=O)C1=C(c2c[nH]c3ccccc23)C(=O)NC1=O`, for which the IC50 in assay [2] was determined as 4.47 µM. Also, the inhibition entry in assay [23] was “Active”.
